Laboratory results taken from PMC9786748, “Carvacrol and HP-β-Cyclodextrin Complexes: Extensive Characterization and Potential Cytotoxic Effect in Human Colorectal Carcinoma Cells” (Pharmaceutics, 2022).
In brackets after ≈: the same amount, converted by molar mass. Like-named read-outs stand apart in the source and are kept apart here.

Key:
[1] = test system: HCT-116 colorectal cancer cells; experiment: Cell viability assay (tetrazolium), HCT-116; format: cell-based; conditions: Homo sapiens; HCT-116, 72 h incubation
Procedure: (§1) Colorectal adenocarcinoma (HCT-116) and non-tumoral fetal lung fibroblast (MRC5) cell lines were obtained from the American Type Culture Collection (ATCC, Rockville, MD, USA). The cell lines were cultivated in high glucose Dulbecco’s modified Eagle’s medium (DMEM) and Eagle’s minimum essential medium (EMEM), respectively, containing 10% heat-inactivated fetal bovine serum (FBS), 2 mM glutamine, 50 U/mL penicillin and 50 µg/mL streptomycin (Sigma-Aldrich Chemical Co., St. Louis, MO, USA) in an atmosphere of 5% CO2 and 95% humidified air at 37 °C. The subculture was complete when 90% confluence was reached. Fibroblasts for up to 15 doublings were used for the experiments.
(§2) Exponentially growing cells were plated in triplicate in flat-bottomed 96-well plates (Nunc, Roskilde, Denmark) at 1500 cells/well for HCT-116 and 4000 cells/well for MRC5. The following day, compounds were added in serial dilutions, from 50 µM to 1000 µM. Control wells contained compound-free medium plus 0.1% dimethyl sulfoxide (DMSO). The plates were incubated for 3 days in a humidified 5% CO2 incubator and cell viability was determined. […] The formazan crystals were dissolved in 200 µL DMSO for 30 min and the absorbance was read at 570 nm in a microtiter plate reader. The results were calculated as:(7) cell viability (%)=average O.D of wells/average O.D of control wells.

[2] = end of the 7-day period, 300 µM, DMEM with HCT-116 cells, 37 °C
Procedure: Carvacrol release from the free and complexed carvacrol was monitored by chromatography (see Section 2.2). Briefly, 1 × 10^5 HCT-116 cells were grown for up to 7 days in DMEM, supplemented with 300 µM free or complexed HP-β-CD-carvacrol, at 37 °C. At each appropriate time point (days 1–7), 1 mL aliquots were withdrawn and replaced with an equal volume of fresh medium. All determinations were made in triplicate.

[3] = weak acid; cited from earlier work
[4] = Phase solubility study of carvacrol with HP-β-CDs (Higuchi and Connors); format: physicochemical
Procedure: (§3) The solubility studies of carvacrol, in the presence of CDs, were performed according to the method described by Higuchi and Connors in 1965, with slight modifications. […] For an evaluation of the pH effect in the process of complex formation, these solutions were prepared in different buffer solutions: 100 mM sodium acetate buffer, pH 3.5 and 5.5; 100 mM sodium phosphate buffer, pH 6.5 and 7.0; and 100 mM sodium borate buffer, pH 8.5. To each solution, a saturating amount of the carvacrol under analysis was added, then the solutions were kept in an ultrasonic bath for 60 min in the dark at 25 °C until equilibrium was reached. After this point, the solutions were filtered through 0.45 μm nylon to remove the excess carvacrol.
(§4) To quantify the amount of monoterpene in each filtrate, the complexes were disrupted by adding 80% ethanol. Each solution was then introduced into a gas chromatograph, coupled to a mass spectrometer (Shimadzu QP 2010) equipped with an Slb-5 ms (30 m × 0.25 mm × […]) capillary column. The operating conditions are as follows: the starting temperature is 70 °C, the temperature is increased at a rate of 4 °C/min until it reaches 160 °C and is then increased to 280 °C at a rate of 30 °C/min, then held there for 6 min; the inlet temperature is 250 °C, the injection type is a 1:20 split mode, with helium used as the carrier gas. Component identification is based on the relative elution times and comparison of the mass spectra of each peak against a database containing the system.
(§5) Once the concentrations of carvacrol in each sample were quantified, the values obtained were plotted against the concentrations of CDs. For the calculation of KC, the slope and intercept of the phase diagrams related to the solubility studies were determined, according to Equation (1):(1) KC=Slope/S0 (1−Slope) where S0 is the solubility of carvacrol at 25 °C, in the absence of cyclodextrins, and Slope is the gradient of the phase solubility diagrams.
(§6) To determine the complexation efficiency (CE) of carvacrol, Equation (2) was used:(2) CE=[carvacrol−CDs]/[CD]=S0× KC.
(§7) The molar ratio (MR) of carvacrol:CDs was calculated using the CE values and Equation (3):(3) carvacrol:CDs=1:(1+1/CE).

[5] = Solubility of carvacrol in the absence of cyclodextrins (S0) at different pH; format: physicochemical; conditions: for S0 (solubility of carvacrol) / solubility at 60 min: absence of CDs; for solubility at 60 min: aqueous buffer, thermodynamic from solid
Procedure: as §3, §4, §5

[6] = Phase solubility study of carvacrol with α-CDs (Higuchi and Connors); format: physicochemical
Procedure: as §3, §4, §5, §6, §7

[7] = test system: MRC-5 lung fibroblast cells; experiment: Cell viability assay (tetrazolium), MRC-5; format: cell-based; conditions: Homo sapiens, MRC5; MRC-5, 72 h incubation
Procedure: as §1, §2

[8] = Phase solubility study of carvacrol with β-CDs (Higuchi and Connors); format: physicochemical; conditions: for CE (complexation efficiency) / KC: β-CDs
Procedure: as §3, §4, §5, §6, §7

[9] = Complexation of carvacrol with HP-β-CD by microwave irradiation (MWI); format: physicochemical; conditions: for increase in solubility of carvacrol / KC: HP-β-CDs
Procedure: as §5
The calculation of the complexation constant (KC) between carvacrol and HP-β-CDs was carried out by the addition of different concentrations of HP-β-CDs to 100 mL of water, maintaining a 1:1 molar ratio. Aqueous HP-β-CD solutions (0–100 mM) were irradiated with microwaves for 30 s at 10 s intervals until the dissolution reached 70 °C. The carvacrol was then added to each sample and irradiated again for 30 s at the same intervals (10 s) until the samples reached 70 °C. Subsequently, the samples were shaken and held for 12 h in scintillation vials, sealed with parafilm, and protected from light.
Then, we repeated the above procedure by irradiating the sample again until it reached 70 °C. The solution was then filtered through 0.45 μm nylon to remove the excess carvacrol. Finally, the concentration of monoterpene was determined via CG-MS.

[10] = Complexation of carvacrol with HP-β-CD by ultrasound (US); format: physicochemical
Procedure: as §5
The solubility method was developed from that used by Higuchi and Connors, with minor modifications. We added an excess of carvacrol to an aqueous solution that increased the concentration to 100 mM HP-β-CD, in 100 mL of water, at 25 °C. […] The aqueous solutions were filtered through 0.45 µm nylon to remove the excess free carvacrol. To determine the amount of carvacrol complexed, samples were diluted in ethanol-water at 80% and analyzed via gas chromatography–mass spectrometry (CG–MS).

[11] = design: method as in PMID 25298799; conditions: with RAMEB; cited from earlier work
[12] = design: method as in PMID 25298799; conditions: with HP-β-CDs; cited from earlier work
[13] = design: method as in PMID 25298799; conditions: with CRYSMEB; cited from earlier work

Cc1ccc(C(C)C)cc1O [carvacrol]
IC50 [1]: 385 µM | soluble drug (carvacrol release) [2]: 4.37 ± 1.61% | pKa [3]: 10.38 | CE (complexation efficiency) ([4]; pH 3.5): 0.546 | KC ([4]; pH 3.5): 198 ± 19 L/mol | CE (complexation efficiency) ([4]; pH 5.5): 0.540 | KC ([4]; pH 5.5): 327 ± 37 L/mol | CE (complexation efficiency) ([4]; pH 6.5): 1.399 | KC ([4]; pH 6.5): 1521 ± 73 L/mol | CE (complexation efficiency) ([4]; pH 7.0): 2.824 | KC ([4]; pH 7.0): 5042 ± 176 L/mol | CE (complexation efficiency) ([4]; pH 8.5): 0.739 | KC ([4]; pH 8.5): 973 ± 94 L/mol | S0 (solubility of carvacrol) ([5]; pH 3.5, 25 °C): 2760 ± 200 µM | S0 (solubility of carvacrol) ([5]; pH 6.5, 25 °C): 920 ± 110 µM | decrease of solubility at pH 7.0 relative to acidic pH ([5]; pH 7.0 vs acidic pH (S0 = 2.76)): 80% | S0 (solubility of carvacrol) ([5]; pH 8.5, 25 °C): 760 ± 130 µM | solubility at 60 min ([5]; sodium acetate buffer, pH 3.5, 25 °C): 2760 µM (≈ 415 µg/mL) | solubility at 60 min ([5]; sodium acetate buffer, pH 5.5, 25 °C): 1650 ± 160 µM (≈ 248 µg/mL) | solubility at 60 min ([5]; sodium borate buffer, pH 8.5, 25 °C): 760 µM (≈ 114 µg/mL) | solubility at 60 min ([5]; sodium phosphate buffer, pH 6.5, 25 °C): 920 µM (≈ 138 µg/mL) | solubility at 60 min ([5]; sodium phosphate buffer, pH 7.0, 25 °C): 560 ± 30 µM (≈ 84.1 µg/mL) | CE (complexation efficiency) ([6]; pH 3.5): 0.298 | KC ([6]; pH 3.5): 108 ± 16 L/mol | CE (complexation efficiency) ([6]; pH 5.5): 0.317 | KC ([6]; pH 5.5): 192 ± 24 L/mol | CE (complexation efficiency) ([6]; pH 6.5): 0.220 | KC ([6]; pH 6.5): 239 ± 42 L/mol | CE (complexation efficiency) ([6]; pH 7.0): 0.224 | KC ([6]; pH 7.0): 400 ± 56 L/mol | CE (complexation efficiency) ([6]; pH 8.5): 0.216 | KC ([6]; pH 8.5): 284 ± 37 L/mol | IC50 [7]: 398 µM | KC with β-CDs relative to KC with α-CD ([8]; compared with α-CD (400 ± 56)): 8 times higher | CE (complexation efficiency) ([8]; pH 3.5): 0.386 | KC ([8]; pH 3.5): 140 ± 21 L/mol | CE (complexation efficiency) ([8]; pH 5.5): 1.234 | KC ([8]; pH 5.5): 748 ± 19 L/mol | CE (complexation efficiency) ([8]; pH 6.5): 0.797 | KC ([8]; pH 6.5): 866 ± 180 L/mol | CE (complexation efficiency) ([8]; pH 7.0): 1.941 | KC ([8]; pH 7.0): 3466 ± 115 L/mol | CE (complexation efficiency) ([8]; pH 8.5): 0.441 | KC ([8]; pH 8.5): 580 ± 45 L/mol | increase in solubility of carvacrol ([9]; MWI, 24 h): 151.8 times | increase in solubility of carvacrol ([9]; MWI, 48 h): 155.6 times | KC ([9]; MWI, at 24 h, pH 7.0): 8129 ± 194 L/mol | KC ([9]; MWI, at 48 h, pH 7.0): 6811 ± 107 L/mol | KC ([9]; microwave irradiation (MWI)): 6909 ± 161 L/mol | S0 ([9]; in the case of MWI): 0.35 mmol/L | increase in solubility of carvacrol ([10]; HP-β-CDs, US method): 132.9 times | KC ([10]; HP-β-CDs, US, pH 7.0): 6909 ± 161 L/mol | KC ([10]; HP-β-CDs, ultrasound (US), 24 h): 8129 ± 194 L/mol | S0 ([10]; achieved by US): 0.56 mmol/L

O=C(O)/C=C/c1ccc(O)cc1 [p-coumaric acid]
CE (complexation efficiency) [11]: 2.57 | CE (complexation efficiency) [12]: 2.30 | CE (complexation efficiency) [13]: 1.89
